The text below walks through data of patent US20260355168A1, “COMPOSITIONS AND METHODS FOR TREATING AND DETECTING CANCER” (CASE WESTERN RESERVE UNIVERSITY, priority 2022, published 2026).

Assay [1] concerns LN229 cells. Nature of the assay: LN229 glioma sphere formation and growth assay. It is filed as cell-based, human. The conditions noted are these: 100 μM, in words. On the procedure:
FIGS. 5(A-E) illustrate a histogram and images showing the results of the LN229 sphere formation and growth assays. Selected inhibitors, activators, and control compounds identified in LN229 and/or U87 scratch wound closure assays were retested at 100 μM in a secondary assay for glioma cell (LN229) sphere formation and growth. A. Histogram showing the effects of the indicated compounds on sphere formation. On day 1, sphere footprint areas were determined and normalized to the average footprint area of the unblinded vehicle-treated controls. On day 1, a larger footprint area indicates inhibition of aggregation. B. Histogram showing the effects of the indicated compounds on sphere growth. On day 7, the changes in sphere footprint areas were calculated and normalized to the average size change of the unblinded vehicle-treated controls. On day 7, a smaller value indicates reduced growth. […] Data is presented as percentages±s.e.m. of 2-4 replicates. Representative images of samples treated with DMSO (C) and two priority inhibitors (D and E) are shown. Relative day 1 footprint areas and day 7 growth measurements are indicated for each example.
FIGS. 15(A-D) illustrate a histogram and images of titration of selected compounds on LN229 sphere formation and growth. LN229 cells were plated onto non-adherent surfaces and treated with the indicated compounds at 100, 50, and 25 μM. A. On day 1, sphere footprint areas were determined and normalized to the average footprint area of the unblinded vehicle-treated controls. On day 1, a larger foot-print area indicates inhibition of aggregation. B. On day 7, the changes in sphere footprint areas were calculated and normalized to the average size change of the unblinded vehicle-treated controls. On day 7, a smaller value indicates reduced growth. […] Data is presented as percentages±s.e.m. The initial test at 100 μM and the follow-up at that dose with titration is shown. Each bar is the average of 2 replicates. Representative day 1 (C) and day 7 (D) images of samples treated with two priority inhibitors are shown. Relative day 1 sphere footprint areas and day 7 growth for each example are indicated.
(§1) Cells were seeded at a density of 7500 cells per well into the internal wells of 96-well plates coated with 0.75% (wt/vol) PVA as previously described. Compounds were added (2×replicates per treatment) at the indicated final concentrations, and control wells were treated with matching concentrations of DMSO. The external wells of the plates were filled with PBS to buffer against edge effects, and the cells were incubated at 37 °C and 5% CO2 for 7 days. A Leica CTR6500 microscope fitted with an automated stage was used to capture brightfield images on day 1 and day 7, and sphere footprint areas were measured using Image J (v1.52a http://imagej.nih.gov/ij) as previously described. To quantify the effects of the compounds on day 1, the footprint areas of the treated wells were normalized to the average area of the matched DMSO control wells. To quantify the effects of the compounds on sphere growth, the change in the sphere footprint areas was calculated ([…]) and then normalized to the average size change of the matched DMSO samples. All values are presented as average percentages±s.e.m.
We tested the effects of twenty-four compounds (11 flagged as inhibitory, 4 as stimulatory, and nine as inert in the initial scratch-wound screen, FIG. 2) on the ability of LN229 cells to mediate cell-cell adhesion and grow in 3D culture on non-adherent surfaces. To quantify sphere formation (FIG. 5A), the footprint areas of aggregates were measured on day 1 and normalized to that of the DMSO control. At this time point, a larger footprint size (>120%) indicates inhibition, i.e., the failure of cells to form a compact aggregate. To quantify sphere growth (FIG. 5B), we calculated the percent changes in sphere footprint areas between day 1 and day 7 and normalized them to that of the DMSO controls.

Assay [2] concerns the target PTPμ (Homo sapiens, UniProt P28827). The assay is described as follows: PTPμ-dependent Sf9 aggregation assay. It is filed as cell-based. To be noted: 100 μM; 20 min pretreatment; in words.
Assay [3] has as its system U87 cells. Nature of the assay: U87 scratch wound healing assay. Type of assay: cell-based, human. To be noted: 100 μM; in words. From the text:
FIGS. 11(A-D) illustrate a histogram and images of the results of the U87 scratch wound assays. A. Histogram showing the effects of all soluble wedge pocket-targeting compounds on U87 scratch wound closure. Cell movement into the scratches was quantified from scratch wound widths at the start and end of the assay and normalized to the average movement of cells in the unblinded DMSO control samples. Data is presented as average percentages±s.e.m., and compound bar codes are shown on the x-axis. Most compounds were screened with an n of 2-4. Representative images of scratch wounds treated with DMSO (A) or two priority inhibitors (C and D) are shown.
(§2) Cells were seeded at a density of 2.7×10^4 cells per well into the internal wells of Incuyte1 Imagelock 96-well plates (Essen BioScience Inc., Ann Arbor, MI) and cultured overnight to form monolayers. Monolayers were wounded with an IncuCyte1 96-well Woundmaker Tool per the manufacturer's instructions. The outer wells were filled with PBS to buffer edge effects, and then the wounded monolayers were cultured in 100 μl of fresh media with compounds or DMSO (2×replicates at 100 μM or 1%, respectively) at 37 °C and 5% CO2. Images were captured every 4 hrs. using an Incucyte live cell imaging system equipped with the Scratch Wound Module. Scratch wound widths were calculated, per the manufacturer's instructions, at TO and at endpoint (typically T12 for LN229 and U87 cells and T8 for Gli36), which was taken as the last timepoint before wound closure. The cell migration distance was calculated from scratch widths [(T0Width−TendpointWidth)/2] and normalized to the average distance migrated by the DMSO controls. Values are presented as average percentages±standard errors of the means (s.e.m.). The majority of compounds were screened with an n of two, but the n for priority hits ranges from 2-6.

For assay [4], the system named is glioma cells. Nature of the assay: Glioma cell assays combined (scratch and sphere, several cell lines). It is filed as cell-based, human. To be noted: 100 μM; multiple assays and cell lines. The procedure:
FIG. 2 illustrates a schematic of a functional screening approach. Seventy-four PTPμ wedge-targeted compounds and 2 blinded DMSO samples were received from Atomwise and screened at 100 μM in scratch wound healing assays using two glioma cell lines (LN229 and U87). Selected active and control compounds were taken into secondary assays (Gli36 scratch and LN229 and Gli36 sphere formation and growth assays). Inhibitors selected as being active in primary and secondary screens were tested for effects on the survival of LN229 and Sf9 cells, and selected glioma-cell inhibitors and activators were screened for effects on Sf9-PTPμ aggregation, a highly specific test for PTPμ function.
as §2, §1

Assay [5] relates to LN229 cells. The assay is described as follows: LN229 scratch wound healing assay. Type of assay: cell-based, human.
Excerpt: FIGS. 3(A-D) illustrate a histogram and images of the LN229 scratch wound assays. A. Histogram showing the effects of all soluble wedge-targeted compounds on LN229 scratch wound closure. Cell movement into the scratches was quantified from scratch wound widths at the start and end of the assay and normalized to the average movement of cells in the unblinded DMSO control samples. Data is presented as average percentages±standard error of the means (s.e.m.), and compound bar codes are shown on the x-axis. The majority of compounds were screened with an n=2. Some priority compounds were screened with 3-6 replicates. Representative endpoint images of samples treated with DMSO (B) and two priority inhibitors (C and D) are shown. The relative migration distances for each example are indicated.
as §2
Scratch assays measure the ability of cells to migrate into a wound and close it creating a monolayer.

For assay [6], the system named is Gli36 cells. The assay is described as follows: Gli36 glioma sphere formation and growth assay. It is filed as cell-based, human. The procedure: FIGS. 6(A-E) illustrate a histogram and images showing the results of the Gli36 sphere formation and growth assays. Selected inhibitors, activators, and control compounds identified in LN229 and/or U87 scratch wound closure assays were retested at 100 μM in a secondary assay for glioma cell (Gli36) sphere formation and growth. A. Histogram showing the effects of the indicated compounds on Day 1 sphere footprint areas. Footprint areas were measured and normalized to the average footprint area of the unblinded DMSO-treated controls. On day 1, a larger footprint area indicates inhibition of aggregation. B. Histogram showing the effects of the indicated compounds on sphere growth. Changes in sphere footprint areas were calculated and normalized to the average size change of the unblinded vehicle-treated controls. On day 7, a smaller value indicates reduced growth. […] Data is presented as percentages±s.e.m. of 2-4 replicates. Representative images of samples treated with DMSO (C) and two priority inhibitors (D and E) are shown. Relative day 1 footprint areas and day 7 growth measurements are indicated for each example.
as §1

SMILES strings stand for the structures. “Also recorded” adds a separate entry of the source.

Sequence of PTPμ (P28827 21-1452): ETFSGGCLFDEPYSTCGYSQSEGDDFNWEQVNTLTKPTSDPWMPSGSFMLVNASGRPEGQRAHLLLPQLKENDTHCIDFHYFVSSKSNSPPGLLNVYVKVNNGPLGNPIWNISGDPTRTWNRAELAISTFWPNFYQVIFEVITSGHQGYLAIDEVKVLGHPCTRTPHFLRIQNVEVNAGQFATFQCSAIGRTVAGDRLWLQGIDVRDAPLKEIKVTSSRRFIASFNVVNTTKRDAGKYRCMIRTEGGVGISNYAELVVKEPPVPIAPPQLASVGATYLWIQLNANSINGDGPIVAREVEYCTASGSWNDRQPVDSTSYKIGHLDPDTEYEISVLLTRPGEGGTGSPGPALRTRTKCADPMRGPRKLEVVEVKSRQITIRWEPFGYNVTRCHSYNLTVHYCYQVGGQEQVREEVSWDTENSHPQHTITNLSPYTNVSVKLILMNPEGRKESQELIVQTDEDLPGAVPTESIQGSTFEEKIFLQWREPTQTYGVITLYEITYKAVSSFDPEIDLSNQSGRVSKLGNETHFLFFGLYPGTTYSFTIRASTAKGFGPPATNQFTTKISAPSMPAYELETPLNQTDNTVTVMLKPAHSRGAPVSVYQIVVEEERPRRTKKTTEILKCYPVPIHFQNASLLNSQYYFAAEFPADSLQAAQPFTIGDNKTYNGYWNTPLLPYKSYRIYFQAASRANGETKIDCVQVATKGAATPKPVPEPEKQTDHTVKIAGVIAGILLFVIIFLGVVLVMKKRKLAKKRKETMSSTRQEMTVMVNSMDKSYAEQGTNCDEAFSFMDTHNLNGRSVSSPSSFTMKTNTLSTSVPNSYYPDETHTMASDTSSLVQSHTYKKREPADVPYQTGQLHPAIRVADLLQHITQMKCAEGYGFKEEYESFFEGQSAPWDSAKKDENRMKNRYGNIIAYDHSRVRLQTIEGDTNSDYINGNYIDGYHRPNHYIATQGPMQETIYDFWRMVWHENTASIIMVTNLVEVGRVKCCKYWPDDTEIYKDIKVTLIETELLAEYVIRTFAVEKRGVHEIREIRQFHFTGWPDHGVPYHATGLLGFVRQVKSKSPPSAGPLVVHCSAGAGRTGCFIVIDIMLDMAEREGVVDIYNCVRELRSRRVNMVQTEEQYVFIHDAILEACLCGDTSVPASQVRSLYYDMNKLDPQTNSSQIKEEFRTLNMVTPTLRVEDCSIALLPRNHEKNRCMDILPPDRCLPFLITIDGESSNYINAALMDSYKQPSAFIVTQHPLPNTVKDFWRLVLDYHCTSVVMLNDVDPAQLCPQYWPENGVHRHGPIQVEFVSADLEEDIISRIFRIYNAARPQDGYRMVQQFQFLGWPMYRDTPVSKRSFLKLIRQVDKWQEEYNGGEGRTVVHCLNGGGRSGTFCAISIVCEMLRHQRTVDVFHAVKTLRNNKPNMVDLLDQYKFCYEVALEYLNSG

As to `COc1ccc(CC(NC(=O)C2CC(NC(=O)CSC)CCN2C(=O)CCC(=O)O)C(N)=O)cc1` (stereo not shown) [Compound 247685114], in assay [1] (day 1), the “Effect on LN229 sphere formation” value was “did not affect LN229 sphere formation or growth”. In addition, in assay [1] (day 7), the “Effect on LN229 sphere growth” value is on record as “did not affect LN229 sphere formation or growth”. The “Effect on PTPμ-dependent Sf9 aggregation / adhesion” value in assay [2] is listed as “activate Sf9-PTPμ aggregation; also recorded: activate PTPμ-dependent adhesion; also recorded: considerable increase in aggregate numbers; also recorded: activator of PTPμ-dependent adhesion; also recorded: able to activate PTPμ-mediated aggregation”. The “Effect on U87 cell migration (scratch wound closure)” value in assay [3] is “did not reach our strict cut-off for an activator; also recorded: weakly stimulatory in U87 and LN229 scratch assays”. Further, in assay [4], the “Effect on glioma cells, overall” value was “only weak, if any, activity in other glioma-cell assays”. In addition, the “Effect on LN229 scratch wound closure / migration” value in assay [5] (100 μM, in words) was “moderately stimulated LN229; also recorded: weakly stimulatory in U87 and LN229 scratch assays”. Besides, the activity at 100 µM was about 120% in assay [5] (Homo sapiens, LN-229, normalized to DMSO controls, read-out: LN229 scratch wound closure relative to DMSO controls) and 68% in assay [6] (Homo sapiens, GLI36, 24 h, day 1, of the control area, read-out: Average day 1 sphere footprint area, Gli36). Further, in assay [6] (100 μM, day 1, in words), the “Effect on Gli36 sphere formation” value was “affected Gli36 spheres; also recorded: accelerate Gli36 sphere condensation and growth; also recorded: weakly stimulatory in U87 and LN229 scratch assays and Gli36 sphere formation and growth assays; also recorded: stimulate Gli36 sphere formation and growth”. Also, in assay [6] (100 μM, day 7, in words), the “Effect on Gli36 sphere growth” value is “grew marginally faster than controls; also recorded: modest activator of Gli36 sphere growth; also recorded: weakly stimulatory in U87 and LN229 scratch assays and Gli36 sphere formation and growth assays; also recorded: stimulate Gli36 sphere formation and growth”.
